Test results reported in patent US20250154611A1, “SYSTEMS AND METHODS TO DETECT STEM CELL STRESS AND USES THEREOF” (Wayne State University, priority 2014, published 2025).
Read-outs that look alike come from different tables or passages of the source.

Key:
[1] = system: Rex1-RFP ESCs, Oct4-GFP ESCs; assay: Plate reader fluorescence of Rex1-RFP and Oct4-GFP reporter ESCs; type: cell-based, mouse; conditions: 3 days
Description: FIGS. 23A and 23B. Stress induces loss of Rex1-RFP but not Oct4-GFP after days of 200 mM sorbitol. Viable pluripotency reporter Rex1-RFP ESCs (FIG. 23A) or Oct4-GFP ESCs (FIG. 23B) were cultured in […] plates to 30% confluence. Cells were then treated with 200 mM of sorbitol as an osmotic stress for 3 days. Fluorescence was determined from live ESCs using a plate reader from 200 mM sorbitol treated cells was normalized with the non-sorbitol treated control cells. Four independent experiments were carried out and plotted here.
FIG. 24. Viable Rex1 promoter reporter responds with stress treatment in a dose-dependent manner in flow cytometry assay. mESCs expressing Rex1 promoter reporter were cultured in 12-well plates till 30% confluent. Cells were then treated with 200-300 mM of sorbitol in 25 mM increments for 3 days. After trypsinization cell suspensions were assayed by flow cytometry.
mESC culture and stimulation. […] Osmolality of ESC media with and without added 200 mM sorbitol was determined as in Example 2.
Fluorescence determination by plate reader of pluripotency reporters. mESCs that stably express Oct4-copGFP and/or Rex1-mApple promoter reporters were plated on 96-well plates at a starting confluence of 5%. Four identical plates were made for the time course study. Cells were grown for 24 hr in incubator till 10% confluence was reached; an addition of stimuli was designated time zero. The cells were stressed for a time period selected from 1, 2, or 3 days. At each time point, the medium was removed and the cells were rinsed with D-PBS. At 50 μl/well, ESCs were measured for fluorescence using the Synergy H1 microplate reader (BioTek, Winooski, VT). The excitation and detection wavelengths for Oct4-copGFP were 485 nm and 528 nm, respectively. The excitation and detection wavelengths for Rex1-mApple were 568 nm and 611 nm, respectively. After live-cell reading, the cells were lysed with 50 μL of lysis buffer (1% NP-40, 0.5% TX-100, 100 mM NaCl, 2 mM EDTA, 50 mM Tris-HCl, and pH 7.5) and measured for fluorescence with the same parameters above. After fluorescence determination, the cell lysates were further measured for total protein concentrations by adding 100 μl of Pierce BCA protein assay reagent (Thermo Scientific Inc.) following the manufacturer's instructions. Finally, the fluorescence readings from either live-cells or lysates were normalized to total protein concentration readings, in which higher readings represent higher pluripotency of the cells.

p38MAPK = p38MAPK (Mus musculus, UniProt P47811); assay: phospho-p38 western blot in mESCs under 200 mM sorbitol; type: cell-based; conditions: 200 mM, persisted throughout 1 hr
Description: (§1) FIG. 14. […] Blots are representative of triplicate experiments. Phospho-proteins and their loading controls are grouped between black lines.
(§2) FIG. 15. […] Blots are representative of triplicate experiments.
(§3) Hyperosmotic activation of signaling enzymes. […] Zhong, 2010; Xie, 2011. […] To determine the kinetics of activation of these five kinases in the described system, mESCs were treated with 200 mM sorbitol for 1 hr. Expression levels of the activated (i.e., phosphorylated) enzymes were assayed by western blot analysis (FIG. 14), including phospho-p38MAPK, phospho-JNK, phospho-MEK1/2, and phospho-AKT (the downstream effector of PI3K signaling).
(§4) Efficacy of enzyme inhibitors.

Rex1 = assay: Immunoblot of endogenous Rex1 protein in Rex1-RFP ESCs; type: cell-based, mouse; conditions: 3 days
Description: FIG. 27. Rex1 promoter RFP have a stress dose-dependent loss of endogenous Rex1 protein corresponding to dose-dependent loss of Rex1 activity shown in FIG. 24. (A) Rex1-RFP mESCs expressing cultured until 30% confluent, treated with 0 mM, 200-300 mM sorbitol in 25 mM increments for 3 days (as in FIG. 24), lysed, size fractionated by SDS-PAGE, blotted, probed for Rex1 and ACTB proteins and analyzed for changes compared to time zero and for stress dose responses. The histogram bars are derived from three independent experiments, one of which is shown in the top panel of FIG. 27, shown are X+/−s.e.m., n=3, (a) is P<0.01 and (b) indicates not significant. FIG. 27, bottom panel.
Immunoblot. After treatment, the ESCs were rinsed with PBS, lysed with RIPA buffer supplemented with protease inhibitors and sonicated briefly. Total protein concentration was determined using Pierce BCA protein assay reagent admixed with Laemmli sample buffer, and boiled for 5 min. Equal total protein amounts from the lysates were size-fractionated by 5-20% gradient SDS-PAGE and transferred onto nitrocellulose membrane. Rex1 […] signals were detected using ECL reagent with X-ray films and quantified using ImageJ 1.48v software (NIH, USA).
Finally it was tested whether endogenous Rex1 protein levels decreased commensurately with decreases in Rex1-RFP activity levels assayed in FIG. 24. Rex1-RFP ESCs were cultured for 3 days with 0-300 mM sorbitol and assayed by immunoblot for endogenous Rex1 levels normalized to ACTB loading controls and with time zero unstressed Rex1 set to 100 as a baseline level. Whereas stress-induced decrease in Rex1 activity in FIG. 24 were 20% and 70% at 200 mM and 300 mM sorbitol, respectively endogenous Rex1 protein losses were 30% and 70% at 200 mM and 300 mM, respectively (FIG. 27). Through the series from 200 mM to 300 mM sorbitol there was generally good agreement between activity level and endogenous protein level for Rex1 at 3 days of stress and with Rex1 protein loss at 1 day (Example 2). […]

AKT = molecular target: T1, AKT (Mus musculus, UniProt P31750); assay: phospho-AKT western blot in mESCs under 200 mM sorbitol; type: cell-based; conditions: 200 mM; persisted through 1 hr
T1 construct: endogenous in cells; host or cells: mESC-D3 (ATCC)
Description: as §1, §2, §3, §4

T1 sequence (P31750 whole entry): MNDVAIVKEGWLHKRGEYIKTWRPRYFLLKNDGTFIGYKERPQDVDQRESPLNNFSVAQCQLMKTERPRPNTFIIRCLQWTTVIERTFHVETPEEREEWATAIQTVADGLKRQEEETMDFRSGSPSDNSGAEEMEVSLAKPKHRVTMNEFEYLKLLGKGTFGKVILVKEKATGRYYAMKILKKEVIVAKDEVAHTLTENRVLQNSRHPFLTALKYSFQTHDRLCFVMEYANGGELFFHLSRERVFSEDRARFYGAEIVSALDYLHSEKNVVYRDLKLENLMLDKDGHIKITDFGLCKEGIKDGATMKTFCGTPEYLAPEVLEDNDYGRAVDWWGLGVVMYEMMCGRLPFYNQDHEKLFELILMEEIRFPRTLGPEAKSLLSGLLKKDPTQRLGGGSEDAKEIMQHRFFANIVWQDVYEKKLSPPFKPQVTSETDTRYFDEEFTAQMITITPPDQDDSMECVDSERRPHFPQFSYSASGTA
Chain of p38MAPK (P47811 whole entry): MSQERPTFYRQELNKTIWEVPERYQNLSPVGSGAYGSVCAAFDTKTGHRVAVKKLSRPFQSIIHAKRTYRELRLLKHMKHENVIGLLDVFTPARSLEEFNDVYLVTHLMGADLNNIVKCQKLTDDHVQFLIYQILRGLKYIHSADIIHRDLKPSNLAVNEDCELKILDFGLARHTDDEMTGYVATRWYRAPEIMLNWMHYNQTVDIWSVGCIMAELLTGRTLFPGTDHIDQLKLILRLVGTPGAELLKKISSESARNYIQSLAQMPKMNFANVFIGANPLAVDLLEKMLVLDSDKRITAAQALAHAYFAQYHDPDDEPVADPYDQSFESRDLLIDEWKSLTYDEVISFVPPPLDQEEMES

OC[C@@H](O)[C@@H](O)[C@H](O)[C@@H](O)CO [sorbitol]
Rex1-RFP fluorescence ([1]; 200 mM, LIF present): significant loss
decrease in Rex1-RFP activity ([1]; 200 mM, LIF present): 20%
Oct4-GFP fluorescence ([1]; 200 mM, vs non-sorbitol control): not significantly different
Rex1-RFP fluorescence ([1]; all doses 200-300 mM in 25 mM increments): significant decrease
time at which activated p38MAPK was first detected (p38MAPK): 10 min
lethality in mESCs (mESCs; 200 mM): nonlethal
lethality in mESCs (mESCs; 400 mM): lethal
endogenous Rex1 protein loss (Rex1; 200 mM): 30%
endogenous Rex1 protein loss (Rex1; 300 mM): 70%
endogenous Rex1 protein (Rex1; 225-300 mM, not at 200 mM): significantly lower
time of increased AKT activation (AKT): 20 to 30 min
